Columns and labels:
[1] = system: phosphorylated p42 and p44 MAPK in neonatal rat ventricular myocytes (NRVM); test: p42/44 MAPK activation in NRVM (Western blot); assay type: cell-based
Protocol: PC12 cells originated from rat pheochromocytoma purchased from ATCC, were grown to confluence in T75 flasks, containing DMEM (1000 mg/l glucose) and supplemented with 5% fetal calf serum (FCS), 10% horse serum, and a mixture of 1% of penicillin/streptomycin/nystatin [11]. NRVM cultures were prepared from ventricles of 1–2 day old Sprague-Dawley rats, as previously described (ethics number Il-106-11-2007). […]
(§1) Phosphorylation of MAPK was analyzed in cell lysates and the loading of the lanes normalized to levels of non-phospho MAPK.
PC12 cells or NRVM cultures were resuspended in RIPA (20 mM Tris–HCl pH 7.4, 200 mM NaCl, 1% Triton-X 100, 0.1% SDS, 0.2% sodium deoxycholate, 5 mM EDTA) containing cocktail protease inhibitors (Roche, Basel Switzerland). […] Protein content was determined using the Bradford method (Sigma Chemical Co. St. Louis, MO, USA).Equal amounts of sample were resolved on sodium dodecyl sulfate-polyacrylamide gel electrophoresis (SDS-PAGE) and blotted onto polyvinylidenedifluoride membranes (Millipore, Billerica, MA, USA). […] Quantification of the results was accomplished by measuring the optical density of the labeled bands from the autoradiograms, using the computerized imaging program Bio-1D (VilberLourmat Biotech. Bioprof., France). […]

[2] = system: phosphorylated p42 and p44 MAPK in PC12 cells; test: p42/44 MAPK activation in PC12 cells (Western blot); assay type: cell-based, rat
Protocol: as §1
(§2) PC12 cells originated from rat pheochromocytoma purchased from ATCC, were grown to confluence in T75 flasks, containing DMEM (1000 mg/l glucose) and supplemented with 5% fetal calf serum (FCS), 10% horse serum, and a mixture of 1% of penicillin/streptomycin/nystatin [11]. NRVM cultures were prepared from ventricles of 1–2 day old Sprague-Dawley rats, as previously described (ethics number Il-106-11-2007). Briefly, the ventricles of the excised hearts were dissociated with 0.1% RDB, a protease isolated from fig tree extract (Institute of Biology, Nes-Ziona,Israel), and the dispersed cells were resuspended in F-10 culture medium containing 1 mM CaCl2, 100 U/mL penicillin-streptomycin, 5% FCS, 5% donor horse serum, and 25 mg of bromodeoxyuridine (5-bromo-2′-deoxyuridine, BrdU).Cell cultures were incubated at 37°C in a humid 5% CO2-95% air environment. For all experiments, cells were initially seeded in full-serum cultured media and then replaced into serum-free media containing the respective supplements.
PC12 cells or NRVM cultures were resuspended in RIPA (20 mM Tris–HCl pH 7.4, 200 mM NaCl, 1% Triton-X 100, 0.1% SDS, 0.2% sodium deoxycholate, 5 mM EDTA) containing cocktail protease inhibitors (Roche, Basel Switzerland). The lysates were precleared by centrifugation. Protein content was determined using the Bradford method (Sigma Chemical Co. St. Louis, MO, USA).Equal amounts of sample were resolved on sodium dodecyl sulfate-polyacrylamide gel electrophoresis (SDS-PAGE) and blotted onto polyvinylidenedifluoride membranes (Millipore, Billerica, MA, USA). Membranes were treated with blocking buffer (5% dry milk, 0.05% Tween 20 in TBS). Primary antibodies were diluted in the blocking buffer and incubated with membranes for 20 h at 4°C followed by incubation (1 h at room temperature) in dilutions of horseradish peroxidase-conjugated secondary antibodies in the same buffer. Following antibody incubations, membranes were washed in 0.5% Tween 20 TBS. Detection was achieved using Western blotting ECL reagent (Amersham, Pharmacia, Little Chalfort Buckinghamshire, UK). Quantification of the results was accomplished by measuring the optical density of the labeled bands from the autoradiograms, using the computerized imaging program Bio-1D (VilberLourmat Biotech. Bioprof., France). The values were normalized to β-actin intensity levels.

[3] = system: neonatal rat ventricular myocytes (NRVM); test: Serum deprivation-induced apoptosis in NRVM (TUNEL); assay type: cell-based; settings: serum free medium, efaroxan 10 µM pre-incubation, TVP1022 20 µM
Protocol: as §2, with “For all experiments, cells were initially seeded in full-serum cultured media and then replaced into serum-free media containing the respective supplements.” left out
In situ DNA fragmentation was performed by the terminal deoxynucleotidyl transferase-mediated deoxyuridine triphosphate-digoxigenin nick end labeling (TUNEL). […] Quantification of the apoptotic cells was calculated as the ratio of TUNEL-positive cells to the total number of cells in the same slide.
NRVM cells were incubated in full serum medium for 24 h before replacing to serum free medium. […] B. Representative Western blots and quantitative results of cleaved caspase 3 protein expression. […]

[4] = system: cleaved caspase 3 in NRVM; test: Cleaved caspase 3 in serum-deprived NRVM (Western blot); assay type: cell-based, rat; settings: serum free medium, efaroxan 10 µM, TVP1022 20 µM
Protocol: NRVM cells were incubated in full serum medium for 24 h before replacing to serum free medium. […] A. Apoptotic nuclei were identified by TUNEL analysis. […] B. Representative Western blots and quantitative results of cleaved caspase 3 protein expression. The loading of the lanes was normalized to β-actin levels.
PC12 cells or NRVM cultures were resuspended in RIPA (20 mM Tris–HCl pH 7.4, 200 mM NaCl, 1% Triton-X 100, 0.1% SDS, 0.2% sodium deoxycholate, 5 mM EDTA) containing cocktail protease inhibitors (Roche, Basel Switzerland). The lysates were precleared by centrifugation. Protein content was determined using the Bradford method (Sigma Chemical Co. St. Louis, MO, USA).Equal amounts of sample were resolved on sodium dodecyl sulfate-polyacrylamide gel electrophoresis (SDS-PAGE) and blotted onto polyvinylidenedifluoride membranes (Millipore, Billerica, MA, USA). Membranes were treated with blocking buffer (5% dry milk, 0.05% Tween 20 in TBS). […] Quantification of the results was accomplished by measuring the optical density of the labeled bands from the autoradiograms, using the computerized imaging program Bio-1D (VilberLourmat Biotech. Bioprof., France). […]

[5] = molecular target: I2 imidazoline receptor; test: I2 imidazoline receptor binding assay ([3H]idazoxan); settings: [3H]idazoxan 2 nM, rat cerebral cortex
Source text: (§3) The specific ligand binding to the receptors is defined as the difference between the total binding and the nonspecific binding determined in the presence of an excess of unlabelled ligand, as described in Table 1.
(§4) The specific ligand binding to the receptors is defined as the difference between the total binding and the nonspecific binding determined in the presence of an excess of unlabelled ligand (Table 1). The IC50 values (concentration causing a half-maximal inhibition of control specific binding) and Hill coefficients (nH) were determined by non-linear regression analysis of the competition curves generated with mean replicate values using Hill equation curve fitting [Y = D+((A – D)/(1+(C/C50) nH)], where Y = specific binding, D = minimum specific binding, A = maximum specific binding, C = compound concentration, C50 = IC50, and nH = slope factor). This analysis was performed using SigmaPlot ® 4.0 for Windows ® (© 1997 by SPSS Inc.). The inhibition constants (Ki) were calculated using the Cheng Prusoffequation [Ki = IC50/(1+(L/KD)], where L = concentration of radioligand in the assay, and KD = affinity of the radioligand for the receptor).

[6] = molecular target: I1 imidazoline receptor; test: I1 imidazoline receptor binding assay ([3H]clonidine); settings: [3H]clonidine 15 nM, bovine adrenal medulla glands
Source text: as §3, §4

With `COc1cccc(-c2cc(=O)c3ccccc3o2)c1N` [PD98059] as the compound, how does the “effect on TVP1022-induced ERK phosphorylation” value ([1]; PD98059 30 µM pre-incubation 30 min) read?
The value was “abolished”.

And the “effect on TVP1022-induced increase of MAPK phosphorylation” value ([2]; PD98059 30 µM pretreatment 30 min, TVP1022 20 µM)?
The value was “significantly blocked”.

Which results are given for `CCC1(C2=NCCN2)Cc2ccccc2O1` (stereo not drawn) [efaroxan]?
effect on TVP1022-mediated increases in p42 and p44 MAPK phosphorylation ([1]; efaroxan 10 µM pre-incubation, TVP1022 10 and 20 µM): antagonized; effect on TVP1022-induced MAPK activation ([2]; efaroxan 10 µM pre-incubation 30 min, TVP1022 20 µM): abolished; effect on moxonidine-induced phosphorylation of p42 and p44 MAPK ([2]; efaroxan 10 µM pre-incubation, moxonidine 1 µM): abolished; effect on TVP1022-induced cytoprotective effect (TUNEL) [3]: markedly prevented; effect on TVP1022-suppressive effects on caspase 3 [4]: markedly reversed

With `c1ccc2c(c1)OCC(C1=NCCN1)O2` (stereo not drawn) [idazoxan, reference compound] as the compound, how does the IC50 ([5]; 30 min 22°C) read?
The IC50 was 16 nM.

And the Ki ([5]; Cheng Prusoff equation)?
The Ki was 10 nM.

For `COc1nc(C)nc(Cl)c1N=C1NCCN1` [monoxidine, moxonidine], which “effect on phosphorylation of p42 and p44 MAPK” value ([2]; 1 µM, 30 min) is on record?
The value was “increased”.

Which IC50 ([6]; 60 min 22°C) does the source give for `C1COC(NC(C2CC2)C2CC2)=N1` [rilmenidine, reference compound] here?
The IC50 was 160 nM.

And the Ki ([6]; Cheng Prusoff equation)?
The Ki was 84 nM.

Reference: PMC3499525 (PLoS ONE, 2012)
